We go through 3 molecules from PMC4264767, “Discovery of Two β-1,2-Mannoside Phosphorylases Showing Different Chain-Length Specificities from Thermoanaerobacter sp. X-514” (PLoS ONE, 2014).

Molecules are shown by their SMILES.

The target of this assay is T1, Teth514_1788 (Thermoanaerobacter sp. X514, UniProt B0K2C2).
T1 construct: full-length, no signal peptide predicted, C-terminal His6-tag (pET24a) kept, E. coli Rosetta 2 (DE3); theoretical mass 33,997; homodimer
T1 sequence (B0K2C2 1-296): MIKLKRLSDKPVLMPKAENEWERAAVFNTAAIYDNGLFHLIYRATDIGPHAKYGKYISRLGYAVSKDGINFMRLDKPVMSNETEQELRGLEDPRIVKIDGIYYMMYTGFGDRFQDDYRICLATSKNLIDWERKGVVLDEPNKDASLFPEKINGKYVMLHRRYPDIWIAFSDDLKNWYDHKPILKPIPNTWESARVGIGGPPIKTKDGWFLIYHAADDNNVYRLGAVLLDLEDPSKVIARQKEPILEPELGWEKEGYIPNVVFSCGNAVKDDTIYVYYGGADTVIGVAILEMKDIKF
As to the kind of experiment: colorimetric α-Man1P release, sequential Bi Bi fit. Format: biochemical. Particulars: kinetic constant K iA of substrate A, no inhibition constant; phosphorolysis; Pi 0.10-2.0 mM; 40 mM MES-NaOH pH 6.0; 30°C.
As to `OC[C@H]1O[C@@H](O[C@@H]2[C@H](O[C@@H]3[C@H](O[C@@H]4C(O)O[C@H](CO)[C@@H](O)[C@@H]4O)O[C@H](CO)[C@@H](O)[C@@H]3O)O[C@H](CO)[C@@H](O)[C@@H]2O)[C@@H](O)[C@@H](O)[C@@H]1O` (stereo partly drawn) [product 3, β-D-mannopyranosyl-(1→2)-β-D-mannopyranosyl-(1→2)-β-D-mannopyranosyl-(1→2)-D-mannose], the “K iA” value was 1.9 ± 0.6 mM.

`OC[C@H]1O[C@@H](O[C@@H]2C(O)O[C@H](CO)[C@@H](O)[C@@H]2O)[C@@H](O)[C@@H](O)[C@@H]1O` (stereo partly drawn) [product 1, β-D-mannopyranosyl-(1→2)-D-mannose]: the “K iA” value worked out at 0.63 ± 0.2 mM.

As for `OC[C@H]1O[C@@H](O[C@@H]2[C@H](O[C@@H]3C(O)O[C@H](CO)[C@@H](O)[C@@H]3O)O[C@H](CO)[C@@H](O)[C@@H]2O)[C@@H](O)[C@@H](O)[C@@H]1O` (stereo partly drawn) [product 2, β-D-mannopyranosyl-(1→2)-β-D-mannopyranosyl-(1→2)-D-mannose], the “K iA” value is 2.1 ± 0.5 mM.
